Reference: publication PMC5610936 (Biochemical pharmacology, 2017)
Like-named read-outs stand apart in the source and are kept apart here.

Assays:
HT-29 cells [1] = assay: Colony formation; type: cell-based, human
HT-29 cells [2] = assay: Intracellular ROS by flow cytometry with CM-H2-DCF-DA; type: cell-based, human; conditions: 24 h; for intracellular ROS (DCF) after high concentration: 500 nM; for change in DCF fluorescence (intracellular ROS) vs vehicle: 50 nM
HT-29 cells [3] = assay: Seahorse oxygen consumption rate / extracellular acidification rate; type: cell-based, human
NOX2 [4] = molecular target: T1, NOX2 (Homo sapiens, UniProt P04839); assay: PMA-induced superoxide anion luminescence assay, differentiated HL-60 cells; type: cell-based
HT-29 cells [5] = assay: MTT cell growth assay; type: cell-based, human; conditions: for 50% growth inhibition of HT-29 cells reached within 72 h: 100 nM, time course up to 72 h; for IC50: Homo sapiens, HT-29, 72 h, read-out: IC50 inhibition of HT-29 cell proliferation
NOX2 [6] = molecular target: T1, NOX2; assay: PMA-induced superoxide anion luminescence assay, PMNs; type: cell-based
HT-29 cells [7] = test system: HT-29 cells
HT-29 cells [8] = assay: HT-29 cell growth by cell counting after SOD/catalase; type: cell-based, human; conditions: 96 h, 0-2000 U/ml, significant at ≥ 500 U/ml
[9] = read-out: 10-day treatment IC50, colony formation, HT-29, 10-day exposure
[10] = read-out: 24-h treatment IC50, cellular respiration (OCR), HT-29, 24 h
[11] = read-out: 30-min treatment IC50, cellular respiration (OCR), HT-29, 30 min
[12] = read-out: 60-min treatment IC50, cellular respiration (OCR), HT-29, 60 min
[13] = ratio of NOX2 IC50 values, PMN vs HL-60
[14] = Homo sapiens, HT-29, 240 h, read-out: 10-day treatment IC50, colony formation
[15] = Homo sapiens, HT-29, read-out: 2-h treatment IC50, colony formation
[16] = Homo sapiens, HT-29, 1 h, read-out: 60-min treatment IC50, cellular respiration (OCR)
[17] = Homo sapiens, HT-29, 24 h, read-out: 24-h treatment IC50, cellular respiration (OCR)
[18] = Homo sapiens, HT-29, 1 h, read-out: 60-min treatment IC50, cellular respiration (OCR), HT-29, 60 min
[19] = Homo sapiens, HT-29, 24 h, read-out: 24-h treatment IC50, cellular respiration (OCR), HT-29, 24 h

Molecule: COC(=O)c1ccc2c(c1)[I+]c1ccccc1-2.Cc1ccc(S(=O)(=O)[O-])cc1 [compound 140, Dibenz[b,d]iodolium, 3-(methoxycarbonyl)-, salt with 4-methyl-benzenesulfonic acid (1:1)]
- IC50 (HT-29 cells [1]; [9]): 40 ± 32 nM
- intracellular ROS (DCF) after high concentration (HT-29 cells [2]): did not demonstrate this effect
- IC50 (HT-29 cells [3]; [10]): 76 ± 21 nM
- IC50 (HT-29 cells [3]; [11]): 678 ± 201 nM
- IC50 (HT-29 cells [3]; [12]): 475 ± 116 nM
- fold more potent in HL-60 leukemia line compared to PMNs (NOX2 [4]; [13]): 2- to 5 fold

Molecule: Brc1ccc2c(c1)[I+]c1cc(Br)ccc1-2.[Br-] [compound 104, Dibenziodolium, 3,7-dibromo-, bromide]
- 50% growth inhibition of HT-29 cells reached within 72 h (HT-29 cells [5]): achieved 50% growth inhibition
- IC50 (HT-29 cells [5]): 150 to 250 nM
- IC50 (HT-29 cells [1]; [14]): 9 ± 2 nM
- IC50 (HT-29 cells [1]; [15]): 1220 nM
- change in DCF fluorescence (intracellular ROS) vs vehicle (HT-29 cells [2]): left-shift (decrease) in DCF fluorescence
- intracellular ROS (DCF) after high concentration (HT-29 cells [2]): did not demonstrate this effect
- IC50 (HT-29 cells [3]; [16]): 1470 nM
- IC50 (HT-29 cells [3]; [17]): 74 ± 54 nM
- IC50 (NOX2 [6]): 481 ± 44 nM
- fold more potent in HL-60 leukemia line compared to PMNs (NOX2 [4]; [13]): 2- to 5 fold

Molecule: O=[N+]([O-])c1ccc2c(c1)[I+]c1cc([N+](=O)[O-])ccc1-2.[Br-] [compound 392, Dibenziodolium, 3,7-dinitro-, bromide]
- IC50 (HT-29 cells [1]; [14]): 27 ± 28 nM
- change in DCF fluorescence (intracellular ROS) vs vehicle (HT-29 cells [2]): left-shift (decrease) in DCF fluorescence
- intracellular ROS (DCF) after high concentration (HT-29 cells [2]): did not demonstrate this effect
- effect on cellular metabolic activity (OCR/ECAR) (HT-29 cells [3]; 24 h, concentrations ≤ 316 nM): no adverse effects
- IC50 (HT-29 cells [3]; [18]): 2180 nM
- IC50 (HT-29 cells [3]; [19]): ~800 nM
- IC50 (HT-29 cells [3]; [10]): 801 ± 194 nM
- IC50 (NOX2 [6]): 850 ± 197 nM
- fold more potent in HL-60 leukemia line compared to PMNs (NOX2 [4]): 2- to 5 fold

Molecule: O=[N+]([O-])c1cccc2c1-c1c(cccc1[N+](=O)[O-])[I+]2.[Br-] [compound 521, Dibenziodolium, 1,9-dinitro-, salt with bromide (1:1)]
- IC50 (HT-29 cells [1]; [9]): 488 ± 101 nM
- 24-h treatment IC50, cellular respiration (OCR) (HT-29 cells [3]; HT-29, 24 h): No effect
- IC50 (HT-29 cells [3]; [11]): 1670 nM
- IC50 (HT-29 cells [3]; [12]): 1000 nM

Molecule: O=[N+]([O-])c1ccc2c(c1)[I+]c1ccccc1-2.[Cl-] [compound 428, Dibenz[b,d]iodolium, 3-nitro-, chloride]
- 50% growth inhibition of HT-29 cells reached within 72 h (HT-29 cells [5]): achieved 50% growth inhibition
- IC50 (HT-29 cells [1]; [14]): 11 ± 6 nM
- IC50 (HT-29 cells [1]; [15]): 77 ± 12 nM
- IC50 (HT-29 cells [1]; Homo sapiens, HT-29, read-out: 6-h treatment IC50, colony formation): 29 ± 23 nM
- change in DCF fluorescence (intracellular ROS) vs vehicle (HT-29 cells [2]): left-shift (decrease) in DCF fluorescence
- intracellular ROS (DCF) after high concentration (HT-29 cells [2]): increases in intracellular ROS
- IC50 (HT-29 cells [3]; [18]): 211 ± 33 nM
- IC50 (HT-29 cells [3]; [19]): 45 ± 23 nM

Molecule: c1ccc2c(c1)[I+]c1ccccc1-2 [DPI, Diphenylene iodonium, reference compound]
- IC50 (HT-29 cells [5]): ~450 nM
- IC50 (HT-29 cells [1]; [14]): 39 ± 23 nM
- IC50 (HT-29 cells [1]; [15]): 9260 nM
- change in DCF fluorescence (intracellular ROS) vs vehicle (HT-29 cells [2]): left-shift (decrease) in DCF fluorescence
- intracellular ROS (DCF) after high concentration (HT-29 cells [2]): increases in intracellular ROS
- decrease in oxygen consumption (HT-29 cells [3]; 2 μM, immediate effect): 80%
- concentration at which ECAR increased (HT-29 cells [3]; HT-29, 24-h treatment): 316 nM
- concentration at which OCR began to decrease (HT-29 cells [3]; HT-29, 24-h treatment): 31.6 nM
- IC50 (HT-29 cells [3]; [16]): 4570 nM
- IC50 (HT-29 cells [3]; [17]): 200 ± 245 nM
- effect on mitochondrial ROS production (MitoSox) (HT-29 cells [7]; 1 μM, 2 h): right shift in MitoSox fluorescence
- effect on mitochondrial ROS production (MitoSox) (HT-29 cells [7]; concentrations ≤ 200 nM, 24 h): no effect

B1: catalase: ROS detoxifying enzyme, human catalase (Sigma Aldrich) (protein, UniProt P04040 2-527, looked up)
Catalase: ADSRDPASDQMQHWKEQRAAQKADVLTTGAGNPVGDKLNVITVGPRGPLLVQDVVFTDEMAHFDRERIPERVVHAKGAGAFGYFEVTHDITKYSKAKVFEHIGKKTPIAVRFSTVAGESGSADTVRDPRGFAVKFYTEDGNWDLVGNNTPIFFIRDPILFPSFIHSQKRNPQTHLKDPDMVWDFWSLRPESLHQVSFLFSDRGIPDGHRHMNGYGSHTFKLVNANGEAVYCKFHYKTDQGIKNLSVEDAARLSQEDPDYGIRDLFNAIATGKYPSWTFYIQVMTFNQAETFPFNPFDLTKVWPHKDYPLIPVGKLVLNRNPVNYFAEVEQIAFDPSNMPPGIEASPDKMLQGRLFAYPDTHRHRLGPNYLHIPVNCPYRARVANYQRDGPMCMQDNQGGAPNYYPNSFGAPEQQPSALEHSIQYSGEVRRFNTANDDNVTQVRAFYVNVLNEEQRKRLCENIAGHLKDAQIFIQKKAVKNFTEVHPDYGSHIQALLDKYNAEKPKNAIHTFVQSGSHLAAREKANL
- effect on proliferation of HT-29 cells vs control-treated cells (HT-29 cells [8]): reduced the proliferation
